Test results published in ChEMBL document CHEMBL1201862, “PubChem BioAssay data set” (2004).
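A five-concentration, 48-hour dose response in 96-well plates underlies each endpoint, interpolated linearly between surrounding concentrations. At the GI50, growth is halved.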 Calls of active or inactive are those of the source. Cut-off read from the data, not from the text of the source: active = GI50 up to about 1.1 µM and inactive = higher.

What was measured:
Assay in all cases: growth of human tumour cells (NCI), 48 h
A549 = system: A549
ACHN = system: ACHN
CAKI-1 = system: CAKI-1
HCT-116 = system: HCT-116
HL-60 = system: HL-60
HOP-62 = system: HOP-62
HT-29 = system: HT-29
K562 = system: K562
MCF7 = system: MCF7
MDA-MB-435 = system: MDA-MB-435
MDA-N = system: MDA-N
OVCAR-3 = system: OVCAR-3
RXF 393 = system: RXF 393
SF-539 = system: SF-539
SK-MEL-28 = system: SK-MEL-28
SK-OV-3 = system: SK-OV-3
SN12C = system: SN12C
SNB-19 = system: SNB-19
SNB-78 = system: SNB-78
TK-10 = system: TK-10

SMILES	GI50 (A549)	GI50 (ACHN)	GI50 (CAKI-1)	GI50 (HCT-116)	GI50 (HL-60)	GI50 (HOP-62)	GI50 (HT-29)	GI50 (K562)	GI50 (MCF7)	GI50 (MDA-MB-435)	GI50 (MDA-N)	GI50 (OVCAR-3)	GI50 (RXF 393)	GI50 (SF-539)	GI50 (SK-MEL-28)	GI50 (SK-OV-3)	GI50 (SN12C)	GI50 (SNB-19)	GI50 (SNB-78)	GI50 (TK-10)
CC(C)(CN1CCCCC1)C(=O)/C=C/c1ccc(/C=C/C(=O)C(C)(C)CN2CCCCC2)cc1	0.933 µM (active)	0.264 µM (active)	0.303 µM (active)	0.303 µM (active)	0.116 µM (active)	0.946 µM (active)	0.198 µM (active)	0.103 µM (active)	0.247 µM (active)	0.421 µM (active)	0.177 µM (active)	0.369 µM (active)	0.28 µM (active)	0.538 µM (active)	1.17 µM (inactive)	1.57 µM (inactive)	0.208 µM (active)	1.35 µM (inactive)	2.46 µM (inactive)	1.05 µM (active)
CN(C)c1n/c(=N/Cc2ccco2)ss1	15.6 µM (inactive)	25.9 µM (inactive)	30.5 µM (inactive)	8.97 µM (inactive)	1.59 µM (inactive)	24.9 µM (inactive)	2.44 µM (inactive)	3.77 µM (inactive)	16.4 µM (inactive)	20.5 µM (inactive)	16.6 µM (inactive)	8.97 µM (inactive)	7.98 µM (inactive)	13 µM (inactive)	11.6 µM (inactive)	55.6 µM (inactive)	31.6 µM (inactive)	60.5 µM (inactive)	> 58.9 µM (inactive)	40 µM (inactive)
